Tests used:
Format in all cases: cell-based
MEK1/2 = experiment: Immunoblot of phospho-MEK1/2 in MM.1 S cells; conditions: 10 μM, 0-6 hours
Procedure: (§1) 5×10^6 were cells treated with 10 μM 8-NH2-Ado for the indicated times and harvested. Cell pellets were washed with cold phosphate-buffered saline (PBS; 8.1 g NaCl, 1.14 g Na2HPO4, 0.22 g KCl, and 0.25 g/L KH2PO4) and incubated with lysis buffer (50 mM HEPES, 150 mM NaCl, 1.5 mM MgCl2, 1 mM EDTA pH 8.0, 100 mM NaFI, 10 mM Na Pyrophosphate, 500 μM PMSF, 0.5% Triton X-100, 10% glycerol) at 4° C. for one hour. Lysates were centrifuged at 4° C. for 1 minute at 9000×g, and the supernatants were collected and stored at −20° C. Protein concentration was determined by Bio-Rad protein assay (BioRad Laboratories, Hercules, Calif.). Protein, at a concentration of 30 μg, was mixed with sample buffer (125 mM Tris, pH 6.8, 4% SDS, 20% glycerol, 100 mM Dithiothreitol (DTT), and 0.05% bromophenol blue), and fractionated on a pre-cast 8-16% Tris-Glycine gel (Invitrogen/Novex, Carlsbad, Calif.). Proteins were then transferred to a Polyvinylidene Fluoride (PVDF) membrane (Immobilon-P, Millipore, Bedford, Mass.): Following protein transfer, membranes were blocked with 5% non-fat milk in PBS-T (PBS with 0.1% Tween), incubated with the primary antibody overnight at 4° C. and subsequently with horseradish peroxidase linked secondary antibody (Amersham, Arlington Heights, Ill.). […]

Akt kinase = experiment: Immunoblot of phospho-Akt in MM.1 S cells; conditions: 10 μM
Procedure: 5×10^6 were cells treated with 10 μM 8-NH2-Ado for the indicated times and harvested. Cell pellets were washed with cold phosphate-buffered saline (PBS; 8.1 g NaCl, 1.14 g Na2HPO4, 0.22 g KCl, and 0.25 g/L KH2PO4) and incubated with lysis buffer (50 mM HEPES, 150 mM NaCl, 1.5 mM MgCl2, 1 mM EDTA pH 8.0, 100 mM NaFI, 10 mM Na Pyrophosphate, 500 μM PMSF, 0.5% Triton X-100, 10% glycerol) at 4° C. for one hour. Lysates were centrifuged at 4° C. for 1 minute at 9000×g, and the supernatants were collected and stored at −20° C. Protein concentration was determined by Bio-Rad protein assay (BioRad Laboratories, Hercules, Calif.). Protein, at a concentration of 30 μg, was mixed with sample buffer (125 mM Tris, pH 6.8, 4% SDS, 20% glycerol, 100 mM Dithiothreitol (DTT), and 0.05% bromophenol blue), and fractionated on a pre-cast 8-16% Tris-Glycine gel (Invitrogen/Novex, Carlsbad, Calif.). Proteins were then transferred to a Polyvinylidene Fluoride (PVDF) membrane (Immobilon-P, Millipore, Bedford, Mass.): Following protein transfer, membranes were blocked with 5% non-fat milk in PBS-T (PBS with 0.1% Tween), incubated with the primary antibody overnight at 4° C. and subsequently with horseradish peroxidase linked secondary antibody (Amersham, Arlington Heights, Ill.). Blots were developed using ECL Plus Chemiluminescent Western Blotting Detection reagent (Amersham, Arlington Heights, Ill.) and the signal was visualized with X-ray film (Hyperfilm, Amersham, Arlington Heights, Ill.). For reprobing purposes, blots were stripped using Restore Western Blot Stripping Buffer from Pierce Biotechnology (Rockford, Ill.). Phospho-MKK3/6 (Ser189/207), phospho-p38 (Thr180/Tyr182), phospho-ATF-2 (Thr69/71), phospho-c-Raf (Ser259), phospho-MEK1/2 (Ser217/221), total MEK1/2, phospho-ERK1/2 (Thr202/Tyr204), total ERK1/2, phospho-p90RSK (Ser380), total RSK, phospho-PDK1 (Ser241), total PDKI, phospho-PTEN (Ser380), total PTEN, phospho-Akt (Ser473), total Akt, phospho-GSK-3β (Ser9), total GSK-3β, phospho-FKHRLI (Thr32)/-FKHR (Thr24), phospho-FKHR (Ser256) primary antibodies were obtained from Cell Signaling Technology (Beverly, Mass.). Total MKK3, total MKK6, total p38, total ATF-2, total c-Raf, total FKHR, total FKHRLI, phospho-JNK and total JNK were purchased from Santa Cruz Biotechnology (Santa Cruz, Calif.). Caspase 3, caspase 9, and PARP antibodies were obtained from Pharmingen (San Diego, Calif.) and anti-MKP1 from Upstate (Lake Placid, N.Y.). Anti-caspase 8 mouse serum was a generous gift of Dr. Marcus Peter (University of Chicago).
MM.1 S cells were exposed to 10 μM 8-NH2-Ado for 0, 0.5, 1, 2, 4 and 6 hours, after which cells were lysed as previously (Example 2). 30 μg of protein was separated by gel electrophoresis, transferred to PVDF membrane, and probed with phosphorylation-specific antibodies to MKK3/6, p38 MAPK, ATF-2, MEK1/2, ERK1/2, p90RSK, JNK1, PDK1, Akt, FKHRL1 and GSK-3β.
MM. I S cells were treated with 10 μM 8-chloro-adenosine for 0, 0.5, 1, 2, 4 or 6 hours or 10 μM of cytarabine, fludarabine, gemcitabine or 8-amino-adenosine for 4 hours. Cells were lysed as previously described and 30 μg of protein was separated by gel electrophoresis, transferred to PVDF membrane, and probed with phospho-p38 MAPK (Thr180/Tyr182) antibody.
MM.1 S cells were grown in dextrose-free media and treated with 2 μM Antimycin A, 5 mM 2-DOG, and varying concentrations of dextrose for 90 minutes. Cellular ATP levels were determined using triplicate samples in a luciferase based assay and are expressed here as a percentage of untreated control.

ATF-2 = experiment: Immunoblot of phospho-ATF-2 in MM.1 S cells; conditions: 10 μM, by 2 hours
Procedure: as §1

PDK1 = experiment: Immunoblot of PDK1 (total and phosphorylated) in MM.1 S cells; conditions: 10 μM, 0-6 hours
Procedure: as §1

[1] = system: poly (ADP-ribose) polymerase; experiment: PARP cleavage immunoblot in MM.1 S cells; conditions: 10 μM
Procedure: as §1, with “Calif.).” for “Calif.). Proteins were then transferred to a Polyvinylidene Fluoride (PVDF) membrane (Immobilon-P, Millipore, Bedford, Mass.): Following protein transfer, membranes were blocked with 5% non-fat milk in PBS-T (PBS with 0.1% Tween), incubated with the primary antibody overnight at 4° C. and subsequently with horseradish peroxidase linked secondary antibody (Amersham, Arlington Heights, Ill.).”
MM.1 S cells were exposed to 10 μM 8-NH2-Ado for 0, 0.5, 1, 2, 4 or 6 hours, after which cells were lysed as previously described. […] Total protein levels were also assessed to ensure equal loading and transfer (data not shown). […]

endogenous ATP = experiment: Endogenous ATP pools
Procedure: MM.IS cells were grown in dextrose-free RPMI-1640 media (Invitrogen, Baltimore, Md.) supplemented with 10% fetal bovine serum, 2 mM glutamine, 100 units/ml penicillin, 100 μg/ml streptomycin and 2.5 μg/ml fungizone. Cellular ATP levels were manipulated by the addition of either antimycin (2 μM, a mitochondrial inhibitor) or 2-deoxy-D-glucose (2-DOG, 5 mM, an inhibitor of glycolysis) from Sigma (St. Louis, Mo.) with and without varying concentrations of dextrose. Six different metabolic conditions were examined: 1) antimycin without dextrose, 2) antimycin+0.25 mM dextrose, 3) antimycin+1 mM dextrose, 4) antimycin+10 mM dextrose, 5) 2-DOG without dextrose, 6) 2-DOG+10 mM dextrose. Control cells were not subjected to ATP depletion; 10 mM dextrose was added to dextrose-free RMPI-1640. Endogenous ATP was measured in a luciferase-based assay using the ATP Determination Kit from Molecular Probes (Eugene, Oreg.) and the levels corresponding to each treatment were normalized to untreated controls (20).

STAT proteins = experiment: Phosphorylation status of STAT proteins

Compound: Nc1ncnc2c1nc(N)n2[C@@H]1O[C@H](CO)[C@@H](O)[C@H]1O [8-NH2-Ado, 8-amino-adenosine]
- phosphorylation levels of MEK1/2 (MEK1/2): appear to increase
- phosphorylation of Akt (Akt kinase; 4 hours, data not shown): dramatic loss of phosphorylation
- Phospho-Akt levels (Akt kinase; by 2 hours): decrease significantly
- Phospho-Akt levels (Akt kinase; eventually (after 2 hours)): decline further to negligible levels
- levels of phosphorylated ATF-2 (ATF-2): falling considerably
- Total and phosphorylated levels of PDK1 (PDK1): remain unchanged
- start of cleavage of poly (ADP-ribose) polymerase [1]: ≥ 2 h
- endogenous ATP pools (endogenous ATP): dramatic shifts
- phosphorylation status of the STAT proteins (STAT proteins): unaltered

Reference: patent US20090082304A1, “Methods of Treating Hematological Malignancies with Nucleoside Analog Drugs” (NORTHWESTERN UNIVERSITY, priority 2004, published 2009)
